In US20040102454A1, “Phenylahistin and the phenylahistin analogs, a new class of anti-tumor compounds” (priority 1998, published 2004):
“Also recorded” adds a separate entry of the source.

How the values were obtained:
MKN7 = assay: HCC panel assay, sulforhodamine B; assay type: cell-based; conditions: MKN7, Stomach, (−)-PLH content 24.1%
Protocol: (§1) The antitumor activity of PLH was evaluated by the Human Cancer Cell Line Panel (HCC panel) assay, see Yamori T., Jap. J Cancer Chemother., (1997), 24, 129-35. This HCC panel consists of 38 tumor cell lines including 7 lung cancer, 6 stomach, 6 colon, 5 ovary, 6 central nerve system, 5 breast, 2 kidney and 1 melanoma cell lines. Each tumor cell was seeded in 96-well tissue culture plates and incubated overnight. Various concentrations (5 doses; final 10^−4, 10^−5, 10^−6, 10^−7 and 10^−8 M) of PLH were added, and the cells were incubated for 48 hours. […] All mice were obtained from Japan SLC (Shizuoka, Japan), P388 leukemia cells were obtained from Dainippon Pharmaceuticals Inc. (Osaka, Japan), Lewis Lung Carcinoma from Riken Cell Bank (Tsukuba, Japan), and Colon 26 cells from the National Cancer Center, Japan (Tokyo, Japan).

HBC-5 = assay: HCC panel assay, sulforhodamine B; assay type: cell-based; conditions: HBC-5, Breast, (−)-PLH content 24.1%
Protocol: as §1

OVCAR-4 = assay: HCC panel assay, sulforhodamine B; assay type: cell-based; conditions: OVCAR-4, Ovary, (−)-PLH content 24.1%
Protocol: as §1

MKN28 = assay: HCC panel assay, sulforhodamine B; assay type: cell-based; conditions: MKN28, Stomach, (−)-PLH content 24.1%
Protocol: as §1

HCT-116 = assay: HCC panel assay, sulforhodamine B; assay type: cell-based; conditions: HCT-116, Colon, (−)-PLH content 24.1%
Protocol: as §1

DMS114 = assay: HCC panel assay, sulforhodamine B; assay type: cell-based; conditions: DMS114, Lung, (−)-PLH content 24.1%
Protocol: as §1

HCC2998 = assay: HCC panel assay, sulforhodamine B; assay type: cell-based; conditions: HCC2998, Colon, (−)-PLH content 24.1%
Protocol: as §1

OVCAR-5 = assay: HCC panel assay, sulforhodamine B; assay type: cell-based; conditions: OVCAR-5, Ovary, (−)-PLH content 24.1%
Protocol: as §1

[1] = system: Microtubule protein from bovine brain; assay: Microtubule protein polymerization assay (turbidity); assay type: biochemical
[2] = system: P388 murine leukemia cells; assay: Cytotoxic effects of the phenylahistin enantiomers (Example 8); assay type: cell-based; conditions: Mus musculus, (−) 92.2% e.e., (+) 97.8% e.e.
Excerpt: The cytotoxic effects of the enantiomers of phenylahistin on P388 murine leukemia cells were examined. […] Judging from the content of (−)-phenylahistin in (+)-phenylahistin, (+)-phenylahistin was considered to have relatively low cytotoxicity to P388 cells.

C. glabrata = assay: Antifungal susceptibility testing, broth dilution (NCCLS M38-A); assay type: cell-based, Candida glabrata; conditions: Nakaseomyces glabratus; C. glabrata; 80% reduction in turbidity; read-out: MIC
Protocol: Antifungal susceptibility testing was accomplished according to the methods outlined in the National Committee for Clinical Laboratory Standards, M38-A “Reference Method for Broth Dilution Antifungal Susceptibility Testing of Conidium-Forming Filamentous Fungi; Approved Standard.” This includes testing in RPMI-1640 with glutamine and without bicarbonate, an inoculum size of 0.4-5×10^4, and incubation at 30 or 35° C. for 48 hours. […] Drug concentrations were 0.03-16 μg/ml for the investigational compounds, 0.015-8 μg/ml for itraconazole and griseofulvin.
The minimum lethal concentration (MLC) was determined by plating […] from the MIC concentration and each concentration above the MIC. […] When a MIC was obtained, a minimum fungicidal concentration (MFC) was determined to assess the fungistatic/fungicidal nature of the compound. […] The compound is scored as fungistatic if the cells are able to resume growth and fungicidal if no regrowth is possible because the compound had killed the organisms.

bovine brain tubulin = assay: [^3H]VLB binding competition assay; conditions: DEAE-cellulose filter method; listed as (−)-PLH
[3] = Homo sapiens, read-out: GL50 (the source's name)
[4] = Homo sapiens, read-out: LC50 (the source's name)

For `C=CC(C)(C)c1[nH]cnc1/C=C1\NC(=O)[C@H](Cc2ccccc2)NC1=O` (racemic) [PLH, phenylahistin], the IC50 (MKN7; Homo sapiens, MKN-7, read-out: GL50 (the source's name)) was 0.39 µM, the CC50 (MKN7; Homo sapiens, MKN-7, read-out: LC50 (the source's name)) was > 100 µM and the TGI (MKN7) was >100 µM. The TGI (HBC-5) was >100 µM, the IC50 (HBC-5; Homo sapiens, HBC5, read-out: GL50 (the source's name)) was 0.6 µM and the CC50 (HBC-5; Homo sapiens, HBC5, read-out: LC50 (the source's name)) was > 100 µM. For the same molecule, the IC50 (OVCAR-4; [3]) was 40 µM, the CC50 (OVCAR-4; [4]) was > 100 µM and the TGI (OVCAR-4) was >100 µM. For the same molecule, the IC50 (MKN28; Homo sapiens, MKN-28, read-out: GL50 (the source's name)) was 0.42 µM, the CC50 (MKN28; Homo sapiens, MKN-28, read-out: LC50 (the source's name)) was > 100 µM and the TGI (MKN28) was >100 µM. For the same molecule, the TGI (HCT-116) was >100 µM, the IC50 (HCT-116; [3]) was 0.48 µM and the CC50 (HCT-116; [4]) was > 100 µM. The TGI (DMS114) was 2.4 µM, the IC50 (DMS114; Homo sapiens, DMS-114, read-out: GL50 (the source's name)) was 0.33 µM and the CC50 (DMS114; Homo sapiens, DMS-114, read-out: LC50 (the source's name)) was > 100 µM. The TGI (HCC2998) was 5.3 µM, the IC50 (HCC2998; Homo sapiens, HCC 2998, read-out: GL50 (the source's name)) was 1.1 µM and the CC50 (HCC2998; Homo sapiens, HCC 2998, read-out: LC50 (the source's name)) was > 100 µM. The IC50 (OVCAR-5; [3]) was 1.2 µM, the CC50 (OVCAR-5; [4]) was > 100 µM and the TGI (OVCAR-5) was >100 µM.

In the case of `C=CC(C)(C)c1[nH]cnc1/C=C1\NC(=O)[C@H](Cc2ccccc2)NC1=O` [(−)-phenylahistin], the “polymerization of microtubule protein” value ([1]; 80 μM) is reported as “completely inhibited”, the “turbidity increase at high concentration” value ([1]; concentrations up to 200 μM) is reported as “did not increase the turbidity” and the IC50 ([1]; microtubule protein 1.5 mg/ml (Table 4), read-out: IC50 for Microtubule Protein Polymerization) is reported as 25 µM. For the same molecule, the IC50 [2] was 0.35 µM, the MIC (C. glabrata) was > 70 µg/mL and the “effect on [^3H]VLB binding to tubulin” value (bovine brain tubulin) was “not inhibited; also recorded: slightly enhanced”.
